Results: publication PMC12824250 (Nature Communications, 2025)

Legend:
[1] = tested on: VACV; conditions: cited from earlier work
[2] = tested on: VACV; conditions: in vivo; cited from earlier work
[3] = tested on: rdMPXV^Δ96,158; experiment: microbe, parasite or virus in culture; assay type: cell-based; conditions: Monkeypox virus, 30 h
[4] = tested on: rdMPXV^Δ96,158; assay type: cell-based

Row | Structure (SMILES) | cytopathic effect (CPE) inhibition [1] | protection from VACV infection [2] | EC50 [3] | Gaussia luciferase activity [4] | mean fluorescence intensity of mGreen-positive cells [4]
1 | Cc1cc(C(=O)NNC(=O)c2ccncc2)ccc1Cl [IMCBH, N1-isonicotinoly-N2-3-methyl-4-chlorobenzoylhydrazine] | complete cytopathic effect (CPE) inhibition | failed to protect |  |  | 
2 | Nc1ccn(C[C@@H](CO)OCP(=O)(O)O)c(=O)n1 [Cidofovir] |  |  | 10.5 µM | reduced Gaussia luciferase activity | showed decreased intensity
